Test results as given in PMC12487869, “Toward Imaging of the GABA Transporter Type 1 In Vivo: Quantitative Evaluation of 4 Novel PET Radiotracers in Nonhuman Primates” (Journal of Nuclear Medicine, 2025).

Biological target: T1, GAT-1 (Macaca mulatta, UniProt H9ELS5)
T1 construct: from tissue; host or cells: brain of living rhesus monkeys (in vivo PET)
Assay: Time stability of VT with shortened scan duration
Assay type: in vivo, rhesus monkeys (Macaca mulatta)
Conditions: for Mean percent difference in VT on shortening scan from 180 to 120 min: baseline, 3 monkeys; for Mean percent difference in VT with respect to the 180-min value: blocking condition
Protocol: Finally, to assess the possibility of reducing scan duration, time stability was assessed for the most promising radiotracer by sequentially shortening the time–activity curves from 180 to 60 min and reestimating the kinetic parameters. Scan-time reduction was deemed possible if the VT values from these shortened time–activity curves were within 10% of those estimated with the full time–activity curves.

T1 sequence (H9ELS5 1-599): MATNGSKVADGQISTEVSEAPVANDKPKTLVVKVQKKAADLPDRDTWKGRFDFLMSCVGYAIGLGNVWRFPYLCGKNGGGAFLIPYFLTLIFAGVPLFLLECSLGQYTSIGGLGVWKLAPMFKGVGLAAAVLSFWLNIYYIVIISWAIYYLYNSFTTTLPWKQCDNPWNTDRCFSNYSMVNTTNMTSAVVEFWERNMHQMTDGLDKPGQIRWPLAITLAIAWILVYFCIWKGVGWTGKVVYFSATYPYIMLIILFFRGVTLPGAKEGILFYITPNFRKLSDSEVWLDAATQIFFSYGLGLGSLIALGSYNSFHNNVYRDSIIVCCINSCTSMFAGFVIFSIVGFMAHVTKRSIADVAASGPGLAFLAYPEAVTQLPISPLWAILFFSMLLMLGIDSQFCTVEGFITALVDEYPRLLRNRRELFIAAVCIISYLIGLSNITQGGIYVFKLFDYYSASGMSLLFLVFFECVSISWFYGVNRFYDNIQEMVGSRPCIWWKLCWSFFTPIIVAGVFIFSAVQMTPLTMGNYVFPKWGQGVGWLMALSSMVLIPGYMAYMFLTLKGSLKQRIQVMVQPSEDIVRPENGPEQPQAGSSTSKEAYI

Mean percent difference in VT on shortening scan from 180 to 120 min (hippocampus): 1%
Mean percent difference in VT on shortening scan from 180 to 120 min (thalamus): −12%
Mean percent difference in VT with respect to the 180-min value (frontal cortex): −5%
Mean percent difference in VT with respect to the 180-min value (thalamus): 3%
SMILES: Cc1ccccc1C(=CCCN1CCCC(C(=O)O)C1)c1ccccc1[18F] (stereo not shown) [^18F-GATT-44]
